The record followed here is patent US11945822B2, “Pyrazolo-triazine and/or pyrazolo-pxrimidine derivatives as selective inhibitor of cyclin dependent kinase” (QURIENT CO., LTD., priority 2018, dated 2024).

In general, IC50 refers to the concentration that inhibits the measured activity by half.

Common to all, as to format: cell-based
One test relates to HCT116. The test can be described thus: Cellular HCT116 viability assay (CellTiter-Glo, 72 hours). The following applies: Homo sapiens, HCT-116. In short, it runs like this: (§1)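 Cells were plated at line-specific densities and exposed to compound for 72 hours at 37 °C, 5% CO2, with DMSO-only wells as control (final DMSO below 0.1%). Viability was measured by CellTiter-Glo luminescence in duplicate.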
On the technique in general: ATP-based viability assays read luminescence as a measure of living cells.

For another test, the system named is H460. The test can be described thus: Cellular H460 viability assay (CellTiter-Glo, 72 hours). The following applies: Homo sapiens, NCI-H460. In short, it runs like this: as §1
The test system of a further test is OVCAR-3. The test can be described thus: Cellular OVCAR-3 viability assay (CellTiter-Glo, 72 hours). The following applies: Homo sapiens. In short, it runs like this:
(§2)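 Cells seeded at 1×10^4/well (MM.1S), 5×10^3 (OVCAR-3) or 1×10^3 (A2780), grown in RPMI-1640 with 10% FBS. After 24 h, compound added at 0.0015–10 uM, final DMSO below 0.1%, for 72 h at 37° C. Viability read by CellTiter-Glo luminescence in duplicate, with curve fitting.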

The test system of the next test is MV4-11. The test is described as follows: Cellular MV4-11 viability assay (CellTiter-Glo, 72 hours). The following applies: Homo sapiens. Put shortly:
as §1

The test system of a further test is A2780. The test is described as follows: Cellular A2780 viability assay (CellTiter-Glo, 72 hours). The following applies: Homo sapiens. Put shortly:
as §2

With `CC(C)c1cnn2c(NCc3c(Cl)cccc3-n3ccc(C(C)(C)O)n3)nc(N3CCC(N)CC3)nc12` [Compound 210], the IC50 in the test with HCT116 was under 1000 nM; in the test with H460 it was under 1000 nM; in the test with OVCAR-3, at most 1000 nM; with MV4-11, under 1000 nM; in the test with A2780, at most 1000 nM.
